Reference: PMC6274642, “Small molecule inhibitors reveal allosteric regulation of USP14 via steric blockade” (Cell Research, 2018)

Experiments:
[1] = target: proteasome-bound USP14 (Homo sapiens, UniProt P54578); test: Ub-AMC hydrolysis assay, proteasome-activated USP14
Procedure: It was used to measure the deubiquitinating activity of USP14 variants. The deubiquitination assay was performed by following a published protocol.[7] […] To start the reaction, 1 μM Ub-AMC was added to the system. […] Fluorescence intensity was recorded every 30 s for 15 min. Each experiment was repeated three times, and the average value was calculated.
curves for small-molecule-mediated inhibition of the Ub-AMC hydrolysis activity of
1 nM proteasome. (d-f) Dose-response curves for small-molecule-mediated inhibition of the
Ub-AMC hydrolysis activity of IsoT. The reaction system contained 1 μM Ub-AMC and 10
nM IsoT. All the values correspond to the averages of triplicate experiments.

[2] = target: T1, IsoT (Homo sapiens, UniProt P45974); test: Ub-AMC hydrolysis assay, IsoT; assay type: biochemical; settings: 1 μM Ub-AMC, 10 nM IsoT
T1 construct: made in house
T1 sequence (P45974 1-858): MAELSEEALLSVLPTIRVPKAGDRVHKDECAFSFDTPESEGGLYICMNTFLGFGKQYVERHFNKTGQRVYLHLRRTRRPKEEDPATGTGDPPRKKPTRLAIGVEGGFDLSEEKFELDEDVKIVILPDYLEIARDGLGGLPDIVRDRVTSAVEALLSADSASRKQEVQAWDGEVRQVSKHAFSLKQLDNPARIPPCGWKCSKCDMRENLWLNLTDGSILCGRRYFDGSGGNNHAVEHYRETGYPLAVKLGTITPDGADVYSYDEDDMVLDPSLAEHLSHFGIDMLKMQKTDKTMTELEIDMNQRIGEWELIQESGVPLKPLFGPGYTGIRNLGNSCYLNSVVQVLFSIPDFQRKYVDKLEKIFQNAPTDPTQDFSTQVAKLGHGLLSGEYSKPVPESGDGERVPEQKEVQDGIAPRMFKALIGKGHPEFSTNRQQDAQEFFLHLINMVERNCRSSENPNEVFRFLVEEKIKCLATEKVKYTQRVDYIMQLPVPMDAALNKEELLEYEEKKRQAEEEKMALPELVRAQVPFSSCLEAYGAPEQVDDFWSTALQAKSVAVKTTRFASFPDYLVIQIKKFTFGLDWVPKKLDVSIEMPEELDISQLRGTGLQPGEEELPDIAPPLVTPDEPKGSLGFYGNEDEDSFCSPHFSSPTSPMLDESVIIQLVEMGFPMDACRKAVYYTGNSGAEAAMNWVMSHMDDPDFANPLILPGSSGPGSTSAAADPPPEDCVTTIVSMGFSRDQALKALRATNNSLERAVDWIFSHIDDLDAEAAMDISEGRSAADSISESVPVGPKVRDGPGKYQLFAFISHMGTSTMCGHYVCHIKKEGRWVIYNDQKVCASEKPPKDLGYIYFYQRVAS
From the text: Ub-AMC hydrolysis activity of IsoT.

[3] = target: T2, USP14 (Homo sapiens, UniProt P54578); test: Kinetic analysis (Vm, Km) of Ub-AMC hydrolysis by USP14; assay type: biochemical; settings: Km varied, Vm unchanged with inhibitor concentration
T2 construct: Glutathione S-transferase (GST)-tagged full-length USP14; GST (N); made in house
Procedure: Menten plot of the concentration-dependence of Ub-AMC (1-48 μM) hydrolysis in the presence
The data were fit to a curve by nonlinear regression
(§1) (1 picture or pasted object on this page, not shown here)

[4] = Solubility; assay type: physicochemical; settings: qualitative
[5] = target: T3, USP14 H426E (Homo sapiens, UniProt P54578, H426E); test: In vitro Ub-PA assay, USP14 H426E mutant; assay type: binding; set-up: catalytic domain (residues 96–494) of USP14 were cloned into the pGEX-6P-1 vector; GST (N); made in house
Target sequence in this assay (P54578 96-494 H426E): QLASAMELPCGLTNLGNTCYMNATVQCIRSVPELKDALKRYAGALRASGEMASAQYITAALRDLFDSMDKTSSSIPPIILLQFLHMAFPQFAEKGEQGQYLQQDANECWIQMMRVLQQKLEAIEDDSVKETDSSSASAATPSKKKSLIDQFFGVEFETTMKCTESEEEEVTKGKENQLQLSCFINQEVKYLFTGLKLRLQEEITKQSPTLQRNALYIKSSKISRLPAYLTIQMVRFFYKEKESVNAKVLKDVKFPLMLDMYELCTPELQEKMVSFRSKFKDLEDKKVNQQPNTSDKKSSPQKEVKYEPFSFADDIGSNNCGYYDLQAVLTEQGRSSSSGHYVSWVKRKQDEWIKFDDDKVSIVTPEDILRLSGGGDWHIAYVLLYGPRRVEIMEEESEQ

[6] = target: T4, USP14 Y436A (Homo sapiens, UniProt P54578, Y436A); test: In vitro Ub-PA assay, USP14 Y436A mutant; assay type: binding; set-up: catalytic domain (residues 96–494) of USP14 were cloned into the pGEX-6P-1 vector; GST (N); made in house
Target sequence in this assay (P54578 96-494 Y436A): as the sequence (P54578 96-494 H426E) above, with E331H, Y341A counted along it

[7] = target: T5, USP14 Y476A (Homo sapiens, UniProt P54578, Y476A); test: Ub-AMC hydrolysis assay, USP14 Y476A mutant; assay type: biochemical; settings: 15 μM compound
T5 construct: Glutathione S-transferase (GST)-tagged full-length USP14; GST (N); made in house
From the text: (§2) Supplementary information, Fig. S3 Structural and biochemical analyses of the three […]
(§3) (a) H426 of USP14 forms a hydrogen bind with R74 of Ub, while Y476 forms a hydrogen bound with D199. (b) The Y476K, Y476R and D199A point mutations all abolish the formation of USP14/Ub-PA complex. The result was visualized by SDS-PAGE and Coomassie blue staining. (c-f) Linear kinetics of Ub-AMC hydrolysis by USP14 WT, H426E, Y436A and […]
(§4) curves have R2>0.99. Error bars represent SDs.
as §1

[8] = target: T6, UCH-L1 (Homo sapiens, UniProt P09936); test: In vitro Ub-PA assay, UCH-L1; assay type: binding; settings: 5 mM compound, 3 μM DUB protein, 12 μM Ub-PA
T6 construct: made in house
T6 sequence (P09936 1-223): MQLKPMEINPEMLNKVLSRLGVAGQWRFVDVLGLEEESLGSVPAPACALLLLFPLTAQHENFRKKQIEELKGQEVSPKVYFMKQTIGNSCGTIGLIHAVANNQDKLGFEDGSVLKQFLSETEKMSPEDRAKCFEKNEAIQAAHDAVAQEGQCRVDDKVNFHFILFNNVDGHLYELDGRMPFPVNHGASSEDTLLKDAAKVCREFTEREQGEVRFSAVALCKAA
Procedure: (§5) Linear kinetics of Ub-AMC hydrolysis are shown on the left, and the results of the statistical analysis are shown on the right. […] Error bars represent SDs. […] All the results were visualized by SDS-PAGE and Coomassie blue staining
(§6) For Ub-PA binding, 3 μM DUB protein (USP14^CAT, USP7^CAT, UCH-L1, or UCH-L3) was mixed with 12 μM Ub-PA for at least 1 h at room temperature in a reaction system containing 25 mM Tris-HCl (pH 7.5) and 150 mM NaCl. […] The DMSO concentration should be no more than 10% (v/v). All the samples were analyzed by SDS-PAGE, and the results are shown.

[9] = target: T3, USP14 H426E; test: Ub-AMC hydrolysis assay, USP14 H426E mutant; assay type: biochemical; set-up: Glutathione S-transferase (GST)-tagged full-length USP14; GST (N); made in house; settings: 15 μM compound
From the text: as §2, §3, §4, §1

[10] = target: T7, USP7 F409A (Homo sapiens, UniProt Q93009, F409A); test: Ub-AMC hydrolysis assay, USP7 F409A; assay type: biochemical; settings: 100 μM compound
T7 construct: made in house
From the text: To explain the selectivity of IU1, we first compared the sequence conservation among the USP family. USP14 shares homology with USP2, IsoT, USP7, and USP15, ranging from 28% to 35%, in the catalytic domain. […] First, we compared the structure of USP14^CAT-IU1 with that of apo USP7 (Fig. 3a, b). H426 and Y436 in USP14 aligned well with the corresponding residues in USP7. […] Consistent with this scenario, when we compared the primary sequence and structure of USP14^CAT-IU1 with UCH-L1 and UCH-L3, neither the primary sequence nor the structure of USP14 aligned well with UCH-L1 or UCH-L3 (Fig. 3e, f).
as §5

[11] = target: T8, USP7 (Homo sapiens, UniProt Q93009); test: In vitro Ub-PA assay, USP7; assay type: binding; settings: 5 mM compound, 3 μM DUB protein, 12 μM Ub-PA
T8 construct: 3 μM DUB protein (USP14^CAT, USP7^CAT, UCH-L1, or UCH-L3); made in house
Procedure: as §5, §6

[12] = target: T9, USP14^CAT (Homo sapiens, UniProt P54578); test: In vitro Ub-PA assay, USP14^CAT; assay type: binding; settings: 5 mM compound, 3 μM USP14^CAT, preincubation 1 h 25 °C, 12 μM Ub-PA
T9 construct: catalytic domain (residues 96–494) of USP14 were cloned into the pGEX-6P-1 vector; GST (N, cleaved yes); made in house
Procedure: All the results were visualized by SDS-PAGE and Coomassie blue staining. Ub-PA ubiquitin-propargylamide
We then turned to the biochemical Ub-PA (ubiquitin-propargylamide) assay. […] The covalent attachment of Ub-PA (8 kD) to USP14^CAT (45 kD) produced the novel USP14/Ub-PA complex with an increased molecular weight (53 kD).
as §6

[13] = target: T10, UCH-L3 (Homo sapiens, UniProt P15374); test: In vitro Ub-PA assay, UCH-L3; assay type: binding; settings: 5 mM compound, 3 μM DUB protein, 12 μM Ub-PA
T10 construct: made in house
T10 sequence (P15374 1-230): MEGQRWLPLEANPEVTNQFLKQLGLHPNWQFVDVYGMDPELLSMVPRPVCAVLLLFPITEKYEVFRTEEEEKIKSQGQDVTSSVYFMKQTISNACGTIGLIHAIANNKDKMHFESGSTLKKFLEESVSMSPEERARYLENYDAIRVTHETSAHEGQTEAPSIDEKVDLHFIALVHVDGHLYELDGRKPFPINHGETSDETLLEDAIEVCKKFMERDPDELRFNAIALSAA
Procedure: as §5, §6

[14] = target: T4, USP14 Y436A; test: Ub-AMC hydrolysis assay, USP14 Y436A mutant; assay type: biochemical; set-up: Glutathione S-transferase (GST)-tagged full-length USP14; GST (N); made in house; settings: 15 μM compound
From the text: as §2, §3, §4, §1

T8 sequence (Q93009 214-521 limits assumed): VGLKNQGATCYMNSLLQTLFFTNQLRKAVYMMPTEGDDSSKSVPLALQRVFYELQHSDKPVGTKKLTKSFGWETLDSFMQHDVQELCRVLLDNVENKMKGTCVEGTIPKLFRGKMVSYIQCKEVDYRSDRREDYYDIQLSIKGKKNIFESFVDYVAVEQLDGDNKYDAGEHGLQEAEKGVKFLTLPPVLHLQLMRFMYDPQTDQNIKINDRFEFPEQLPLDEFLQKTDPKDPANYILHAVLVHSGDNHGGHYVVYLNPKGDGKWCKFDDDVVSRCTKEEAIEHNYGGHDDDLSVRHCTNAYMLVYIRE
T9 sequence (P54578 96-494): as the sequence (P54578 96-494 H426E) above, with E331H counted along it
T7 sequence (Q93009 whole entry F409A): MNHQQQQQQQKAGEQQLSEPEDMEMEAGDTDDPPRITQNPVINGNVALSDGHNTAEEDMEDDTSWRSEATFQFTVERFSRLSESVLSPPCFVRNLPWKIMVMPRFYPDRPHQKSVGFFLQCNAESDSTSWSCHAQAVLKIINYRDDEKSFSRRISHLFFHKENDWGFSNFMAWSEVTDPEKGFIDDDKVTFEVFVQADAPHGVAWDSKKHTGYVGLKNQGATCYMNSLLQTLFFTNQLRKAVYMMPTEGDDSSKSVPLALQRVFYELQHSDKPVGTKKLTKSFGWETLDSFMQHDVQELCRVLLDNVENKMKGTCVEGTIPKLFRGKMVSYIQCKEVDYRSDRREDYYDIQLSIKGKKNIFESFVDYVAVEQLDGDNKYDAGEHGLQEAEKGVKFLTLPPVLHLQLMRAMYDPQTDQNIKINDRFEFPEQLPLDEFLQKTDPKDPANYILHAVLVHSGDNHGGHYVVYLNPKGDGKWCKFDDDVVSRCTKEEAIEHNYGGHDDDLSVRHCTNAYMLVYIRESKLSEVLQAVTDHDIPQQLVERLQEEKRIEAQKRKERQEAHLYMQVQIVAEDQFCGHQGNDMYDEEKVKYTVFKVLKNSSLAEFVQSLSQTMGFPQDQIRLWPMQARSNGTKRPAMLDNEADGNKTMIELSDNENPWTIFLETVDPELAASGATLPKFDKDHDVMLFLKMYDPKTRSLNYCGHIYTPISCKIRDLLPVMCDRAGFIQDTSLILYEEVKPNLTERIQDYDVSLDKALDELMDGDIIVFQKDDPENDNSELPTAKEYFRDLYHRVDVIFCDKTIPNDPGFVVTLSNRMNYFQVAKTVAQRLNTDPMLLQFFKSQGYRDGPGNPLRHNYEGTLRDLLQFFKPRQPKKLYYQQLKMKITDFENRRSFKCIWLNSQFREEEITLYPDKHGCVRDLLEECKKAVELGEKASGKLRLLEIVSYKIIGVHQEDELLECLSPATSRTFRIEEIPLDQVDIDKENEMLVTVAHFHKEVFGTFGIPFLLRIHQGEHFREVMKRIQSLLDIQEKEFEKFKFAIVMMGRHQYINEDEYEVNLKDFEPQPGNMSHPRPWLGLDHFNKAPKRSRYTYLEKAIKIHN

Structure (SMILES) | IsoT/USP14 ([1]; ratio of IC50 values IsoT/USP14) | IC50 ([1]; read-out: IC50 USP14, 1 μM Ub-AMC, 15 nM USP14, 1 nM proteasome) [µM] | IC50 [2] [µM] | Mode of inhibition of USP14 [3] | Solubility [4] | Inhibition of Ub-PA binding to USP14 H426E ([5]; 2.5 mM IU1-248) | Inhibition of Ub-PA binding to USP14 Y436A ([6]; 2.5 mM IU1-248) | Inhibition of Ub-AMC hydrolysis activity of USP14 Y476A [7] | Inhibition of binding of Ub-PA to UCH-L1 [8] | Inhibition of Ub-AMC hydrolysis activity of USP14 H426E [9] | Effect on Ub-AMC hydrolysis activity of USP7 F409A [10] | Inhibition of Ub-PA binding to USP14 H426E ([5]; 5 mM IU1) | Inhibition of binding of Ub-PA to USP7 [11] | Inhibition of formation of USP14/Ub-PA complex [12] | Inhibition of binding of Ub-PA to UCH-L3 [13] | Inhibition of Ub-PA binding to USP14 Y436A ([6]; 5 mM IU1) | Inhibition of Ub-AMC hydrolysis activity of USP14 Y436A [14]
Cc1cc(C(=O)CN2CCCCC2)c(C)n1-c1ccc(Cl)cc1 [IU1-47] | 42.85 | 0.68 | 29.1 |  |  |  |  |  |  |  |  |  |  |  |  |  | 
Cc1cc(C(=O)CN2CCC(O)CC2)c(C)n1-c1ccc(C#N)cc1 [IU1-248, 1-[1-(4-cyanophenyl)-2,5-dimethyl-1H-pyrrol-3-yl]-2-(4-hydroxyl) piperidylethan-1-one] |  |  | 21.5 | competitive mechanism | significantly improved solubility | abolished the inhibitory effect | abolished the inhibitory effect |  |  |  |  |  |  |  |  |  | 
Cc1cc(C(=O)CN2CCCC2)c(C)n1-c1ccc(F)cc1 [IU1] |  |  | 143 | competitive inhibitor | poor solubility |  |  | no inhibition | did not inhibit | no inhibition | decreased | could not be inhibited | did not inhibit | significantly inhibited | did not inhibit | could not be inhibited | no inhibition
